Experimental data as given in patent publication US11180483B2, “Substituted reverse pyrimidine Bmi-1 inhibitors” (PTC Therapeutics, Inc., priority 2012, dated 2021).

System: Bmi-1
Assay: Sandwich ELISA Assay (Bmi-1 ELISA) in HT-1080 cells
Format: cell-based
Procedure, shortened: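 HT-1080 cells exposed to compound in 0.5% final DMSO for 40-48 h at 37 °C, then lysed. Bmi-1 was quantified by sandwich ELISA: mouse monoclonal capture, rabbit anti-Bmi-1 detection, HRP anti-rabbit and TMB. Read at OD450 (OD570 reference) against a recombinant GST-Bmi-1 standard curve (0-8000 pg/mL).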

EC50	SMILES
10 to 100 nM	Cc1ccc(Nc2nc(-n3c(C)nc4ccc([N+](=O)[O-])cc43)nc(N)c2F)cc1 [Cpd 232, 5-fluoro-2-(2-methyl-6-nitro-1H-benzimidazol-1-yl)-N-(4-methylphenyl)pyrimidine-4,6-diamine]
10 to 100 nM	COc1ccc(Nc2nc(-n3c(C)nc4ccc([N+](=O)[O-])cc43)nc(N)c2F)cc1 [Cpd 233, 5-fluoro-N-(4-methoxyphenyl)-2-(2-methyl-6-nitro-1H-benzimidazol-1-yl)pyrimidine-4,6-diamine]
10 to 100 nM	Cc1nc2ccccc2n1-c1nc(N)cc(Nc2ccc(OC(F)F)cc2)n1 [Cpd 234, N-[4-(difluoromethoxy)phenyl]-2-(2-methyl-1H-benzimidazol-1-yl)pyrimidine-4,6-diamine]
10 to 100 nM	Cc1nc2ccccc2n1-c1nc(N)cc(Nc2ccc(OC(F)F)c(F)c2)n1 [Cpd 235, N-[4-(difluoromethoxy)-3-fluorophenyl]-2-(2-methyl-1H-benzimidazol-1-yl)pyrimidine-4,6-diamine]
100 to 3000 nM	Cc1nc2ccc([N+](=O)[O-])cc2n1-c1nc(N)c(F)c(Nc2ccc(C(F)(F)F)cc2)n1 [Cpd 236, 5-fluoro-2-(2-methyl-6-nitro-1H-benzimidazol-1-yl)-N-[4-(trifluoromethyl)phenyl]pyrimidine-4,6-diamine]
10 to 100 nM	Cc1nc2c(F)cc(F)cc2n1-c1nc(N)c(F)c(Nc2ccc(Cl)cc2)n1 [Cpd 237, N-(4-chlorophenyl)-2-(4,6-difluoro-2-methyl-1H-benzimidazol-1-yl)-5-fluoropyrimidine-4,6-diamine]
100 to 3000 nM	Cc1nc2c(F)cc(F)cc2n1-c1nc(N)c(F)c(Nc2ccc(OC(F)(F)F)cc2)n1 [Cpd 238, 2-(4,6-difluoro-2-methyl-1H-benzimidazol-1-yl)-5-fluoro-N-[4-(trifluoromethoxy)phenyl]pyrimidine-4,6-diamine]
10 to 100 nM	COc1ccc(Nc2nc(-c3c(C)nn4ccccc34)nc(N)c2F)cc1 [Cpd 239, 5-fluoro-N-(4-methoxyphenyl)-2-(2-methylpyrazolo[1,5-a]pyridin-3-yl)pyrimidine-4,6-diamine]
1 to 10 nM	Cc1nc2c(F)cc(F)cc2n1-c1nc(N)c(F)c(Nc2ccc3c(c2)OCO3)n1 [Cpd 240, N-(1,3-benzodioxol-5-yl)-2-(4,6-difluoro-2-methyl-1H-benzimidazol-1-yl)-5-fluoropyrimidine-4,6-diamine]
10 to 100 nM	Cc1ccc(Nc2nc(-n3c(C)nc4c(F)cc(F)cc43)nc(N)c2F)cc1 [Cpd 241, 2-(4,6-difluoro-2-methyl-1H-benzimidazol-1-yl)-5-fluoro-N-(4-methylphenyl)pyrimidine-4,6-diamine]
1 to 10 nM	COc1ccc(Nc2nc(-n3c(C)nc4c(F)cc(F)cc43)nc(N)c2F)cc1 [Cpd 242, 2-(4,6-difluoro-2-methyl-1H-benzimidazol-1-yl)-5-fluoro-N-(4-methoxyphenyl)pyrimidine-4,6-diamine]
10 to 100 nM	Cc1nc2cc(F)cc(F)c2n1-c1nc(N)c(F)c(Nc2ccc(C(F)(F)F)cc2)n1 [Cpd 243, 2-(5,7-difluoro-2-methyl-1H-benzimidazol-1-yl)-5-fluoro-N-[4-(trifluoromethyl)phenyl]pyrimidine-4,6-diamine]
10 to 100 nM	COc1ccc2nc(C)n(-c3nc(N)c(F)c(Nc4ccc(C(F)(F)F)cc4)n3)c2c1 [Cpd 244, 5-fluoro-2-(6-methoxy-2-methyl-1H-benzimidazol-1-yl)-N-[4-(trifluoromethyl)phenyl]pyrimidine-4,6-diamine]
10 to 100 nM	COc1ccc2nc(C)n(-c3nc(N)c(F)c(Nc4ccc(Cl)cc4)n3)c2c1 [Cpd 245, N-(4-chlorophenyl)-5-fluoro-2-(6-methoxy-2-methyl-1H-benzimidazol-1-yl)pyrimidine-4,6-diamine]
10 to 100 nM	COc1ccc2nc(C)n(-c3nc(N)c(F)c(Nc4ccc(OC(F)(F)F)cc4)n3)c2c1 [Cpd 246, 5-fluoro-2-(6-methoxy-2-methyl-1H-benzimidazol-1-yl)-N-[4-(trifluoromethoxy)phenyl]pyrimidine-4,6-diamine]
10 to 100 nM	COc1ccc2nc(C)n(-c3nc(N)c(F)c(Nc4ccc(OC(F)F)cc4)n3)c2c1 [Cpd 247, N-[4-(difluoromethoxy)phenyl]-5-fluoro-2-(6-methoxy-2-methyl-1H-benzimidazol-1-yl)pyrimidine-4,6-diamine]
10 to 100 nM	COc1ccc2nc(C)n(-c3nc(N)c(F)c(Nc4ccc(C)cc4)n3)c2c1 [Cpd 248, 5-fluoro-2-(6-methoxy-2-methyl-1H-benzimidazol-1-yl)-N-(4-methylphenyl)pyrimidine-4,6-diamine]
10 to 100 nM	COc1ccc(Nc2nc(-n3c(C)nc4ccc(OC)cc43)nc(N)c2F)cc1 [Cpd 249, 5-fluoro-2-(6-methoxy-2-methyl-1H-benzimidazol-1-yl)-N-(4-methoxyphenyl)pyrimidine-4,6-diamine]
10 to 100 nM	COc1ccc2nc(C)n(-c3nc(N)c(F)c(Nc4ccc5c(c4)OCO5)n3)c2c1 [Cpd 250, N-(1,3-benzodioxol-5-yl)-5-fluoro-2-(6-methoxy-2-methyl-1H-benzimidazol-1-yl)pyrimidine-4,6-diamine]

EC50	SMILES
10 to 100 nM	Cc1ccc(Nc2nc(-n3c(C)nc4cc([N+](=O)[O-])ccc43)nc(N)c2F)cc1 [Cpd 254, 5-fluoro-2-(2-methyl-5-nitro-1H-benzimidazol-1-yl)-N-(4-methylphenyl)pyrimidine-4,6-diamine]
100 to 3000 nM	COc1ccc(Nc2nc(-n3c(C)nc4cc([N+](=O)[O-])ccc43)nc(N)c2F)cc1 [Cpd 255, 5-fluoro-N-(4-methoxyphenyl)-2-(2-methyl-5-nitro-1H-benzimidazol-1-yl)pyrimidine-4,6-diamine]
10 to 100 nM	COc1ccc(Nc2nc(-n3c(C)nc4ccc(N)cc43)nc(N)c2F)cc1 [Cpd 256, 2-(6-amino-2-methyl-1H-benzimidazol-1-yl)-5-fluoro-N-(4-methoxyphenyl)pyrimidine-4,6-diamine]
10 to 100 nM	Cc1nc2ccc(N)cc2n1-c1nc(N)c(F)c(Nc2ccc(OC(F)F)cc2)n1 [Cpd 257, 2-(6-amino-2-methyl-1H-benzimidazol-1-yl)-N-[4-(difluoromethoxy)phenyl]-5-fluoropyrimidine-4,6-diamine]
1 to 10 nM	Cc1ccc(Nc2nc(-n3c(C)nc4ccc(N)cc43)nc(N)c2F)cc1 [Cpd 258, 2-(6-amino-2-methyl-1H-benzimidazol-1-yl)-5-fluoro-N-(4-methylphenyl)pyrimidine-4,6-diamine]
100 to 3000 nM	Cc1nc2cc(F)ccc2n1-c1nc(N)c(F)c(Nc2ccc(Cl)cc2)n1 [Cpd 259, N-(4-chlorophenyl)-5-fluoro-2-(5-fluoro-2-methyl-1H-benzimidazol-1-yl)pyrimidine-4,6-diamine]
100 to 3000 nM	Cc1nc2cc(F)ccc2n1-c1nc(N)c(F)c(Nc2ccc(Cl)c(F)c2)n1 [Cpd 260, N-(4-chloro-3-fluorophenyl)-5-fluoro-2-(5-fluoro-2-methyl-1H-benzimidazol-1-yl)pyrimidine-4,6-diamine]
10 to 100 nM	Cc1nc2ccccc2n1-c1nc(N)c(F)c(Nc2ccc(Cl)c(F)c2)n1 [Cpd 261, N-(4-chloro-3-fluorophenyl)-5-fluoro-2-(2-methyl-1H-benzimidazol-1-yl)pyrimidine-4,6-diamine]
10 to 100 nM	Cc1nc2ccc(F)cc2n1-c1nc(N)c(F)c(Nc2ccc(Cl)c(F)c2)n1 [Cpd 262, N-(4-chloro-3-fluorophenyl)-5-fluoro-2-(6-fluoro-2-methyl-1H-benzimidazol-1-yl)pyrimidine-4,6-diamine]
1 to 10 nM	Cc1ccc(Nc2cc(N)nc(-n3c(C)nc4ccc(F)cc43)n2)cc1 [Cpd 264, 2-(6-fluoro-2-methyl-1H-benzimidazol-1-yl)-N-(4-methylphenyl)pyrimidine-4,6-diamine]
1 to 10 nM	COc1ccc(Nc2cc(N)nc(-n3c(C)nc4ccc(F)cc43)n2)cc1 [Cpd 265, 2-(6-fluoro-2-methyl-1H-benzimidazol-1-yl)-N-(4-methoxyphenyl)pyrimidine-4,6-diamine]
1 to 10 nM	CCc1nc2ccccc2n1-c1nc(N)c(F)c(Nc2ccc(C)cc2)n1 [Cpd 270, 2-(2-ethyl-1H-benzimidazol-1-yl)-5-fluoro-N-(4-methylphenyl)pyrimidine-4,6-diamine]
1 to 10 nM	CCc1nc2ccccc2n1-c1nc(N)c(F)c(Nc2ccc(OC)cc2)n1 [Cpd 271, 2-(2-ethyl-1H-benzimidazol-1-yl)-5-fluoro-N-(4-methoxyphenyl)pyrimidine-4,6-diamine]
10 to 100 nM	CCc1nc2ccccc2n1-c1nc(N)c(F)c(Nc2ccc(OC(F)(F)F)cc2)n1 [Cpd 272, 2-(2-ethyl-1H-benzimidazol-1-yl)-5-fluoro-N-[4-(trifluoromethoxy)phenyl]pyrimidine-4,6-diamine]
1 to 10 nM	CCc1nc2ccccc2n1-c1nc(N)c(F)c(Nc2ccc3c(c2)OCO3)n1 [Cpd 273, N-(1,3-benzodioxol-5-yl)-2-(2-ethyl-1H-benzimidazol-1-yl)-5-fluoropyrimidine-4,6-diamine]
10 to 100 nM	CCc1nc2ccccc2n1-c1nc(N)c(F)c(Nc2ccc(Cl)cc2)n1 [Cpd 274, N-(4-chlorophenyl)-2-(2-ethyl-1H-benzimidazol-1-yl)-5-fluoropyrimidine-4,6-diamine]
10 to 100 nM	CCc1nc2ccccc2n1-c1nc(N)c(F)c(Nc2ccc(Cl)c(F)c2)n1 [Cpd 275, N-(4-chloro-3-fluorophenyl)-2-(2-ethyl-1H-benzimidazol-1-yl)-5-fluoropyrimidine-4,6-diamine]
1 to 10 nM	Cc1ccc(Nc2nc(-n3c(C4CC4)nc4ccccc43)nc(N)c2F)cc1 [Cpd 276, 2-(2-cyclopropyl-1H-benzimidazol-1-yl)-5-fluoro-N-(4-methylphenyl)pyrimidine-4,6-diamine]
≤ 1 nM	COc1ccc(Nc2nc(-n3c(C4CC4)nc4ccccc43)nc(N)c2F)cc1 [Cpd 277, 2-(2-cyclopropyl-1H-benzimidazol-1-yl)-5-fluoro-N-(4-methoxyphenyl)pyrimidine-4,6-diamine]
